Measured values taken from patent publication US20250188417A1, “CARDIOMYOCYTES AND COMPOSITIONS AND METHODS FOR PRODUCING THE SAME” (President and Fellows of Harvard College, priority 2021, published 2025).
“Also recorded” adds a separate entry of the source.

Tests used:
[1] = test system: iPSC-derived cardiomyocytes (CMs); assay: Quiescence, cell cycle and TNNT2+ flow cytometry after Torin1 treatment; type: cell-based, human
Procedure: FIG. 10A provides a schematic of a differentiation protocol, with Torin1 treatment performed for 7 days starting ˜2 days after onset of beating, unless otherwise noted. FIG. 10B provides a western analysis of phospho-S6 and phospho-Akt at baseline and 30 minutes, and 2, 4, 10, 24, and 48 hours after a single treatment of iPSC-derived CMs with Torin1 (200 nM), BJRiPS-CMs. […] Torin1 treatment started on day 9, approximately 2 days after onset of CM beating, BJRiPS-CMs, n=3 per group per time point. […] DMSO, dimethylsulfoxide; IWP-4, inhibitor of Wnt production-4; RI, ROCK (Rho-associated, coiled coil containing protein kinase) inhibitor (Y-27632); RPMI, Roswell Park Memorial Institute 1640 medium.

[2] = test system: BJRiPS-CMs; assay: qPCR of sarcomere genes and ion channels after Torin1 treatment; type: cell-based, human
Procedure: FIG. 11A provides qPCR of selected sarcomere genes (MYH6, MYH7, TNNT2, TNNI3) iPSC-derived cardiomyocytes after treatment with Torin1 (10 nM, 50 nM, or 200 nM) or vehicle control (0.02% DMSO) for 7 days starting ˜2 days after onset of beating. n=3 per condition, *p<0.05, ****p<0.001 by two-way ANOVA with Tukey's multiple comparisons test, BJRiPS-CMs. FIG. 11B provides representative of western blot analysis of TNNT2 and TNNI3 after Torin1 treatment for 7 days starting ˜2 days after onset of beating, β-tubulin depicted as loading control, Gibco iPS-CMs. […] FIG. 11D provides representative image of MTF in diastole and systole, with schematic of MTF on side view in diastole and systole. […]
FIG. 13A provides qPCR of selected ion channels (KCNJ2, CACNA1c, RY2, ATP2a2, SCN5a, HCN4) of iPSC-derived cardiomyocytes after treatment with Torin1 (10 nM or 200 nM) or vehicle control (0.02% DMSO) for 7 days starting ˜2 days after onset of beating. n=3 per group, *p<0.05, ****p<0.001 by two-way ANOVA with Tukey's multiple comparisons test, BJRiPS line. FIG. 13B provides flow cytometry analysis of mean fluorescence intensity of Kir2.1 (encoded by KCNJ2) after Torin1 treatment for 7 days starting ˜2 days after onset of beating. n=3 per group, *p<0.01 by unpaired t-test, BJRiPS line. […]

[3] = test system: iPSC-derived cardiomyocytes; assay: Muscular thin film (MTF) contractility; type: cell-based, human; settings: Torin1 200 nM for 7 days; muscular thin films
Procedure: (§1) FIG. 11A provides qPCR of selected sarcomere genes (MYH6, MYH7, TNNT2, TNNI3) iPSC-derived cardiomyocytes after treatment with Torin1 (10 nM, 50 nM, or 200 nM) or vehicle control (0.02% DMSO) for 7 days starting ˜2 days after onset of beating. n=3 per condition, *p<0.05, ****p<0.001 by two-way ANOVA with Tukey's multiple comparisons test, BJRiPS-CMs. FIG. 11B provides representative of western blot analysis of TNNT2 and TNNI3 after Torin1 treatment for 7 days starting ˜2 days after onset of beating, β-tubulin depicted as loading control, Gibco iPS-CMs. […] FIG. 11D provides representative image of MTF in diastole and systole, with schematic of MTF on side view in diastole and systole. FIG. 11E provides representative force versus time plot of muscular thin film (MTF) seeded with iPSC-derived cardiomyocytes treated with Torin1 (200 nM) or vehicle for 7 days starting ˜2 days after onset of beating, BJRiPS-CMs. […] FIG. 11G provides representative immunostained images showing cardiomyocytes treated with or without Torin1 (200 nM×7 days), blue=DAPI, green=alpha-actinin, yellow=F-actin, magenta=TNNT2, BJRiPS-CMs, scale bar=10 μm. […] DMSO, dimethylsulfoxide; TBP, TATA-binding protein.

[4] = test system: BJRiPS-CMs; assay: Sarcomere length by immunostaining; type: cell-based, human; settings: Torin1 200 nM×7 days versus control; unpaired t-test; FIG. 11H
Procedure: as §1

[5] = test system: BJRiPS-CMs; assay: Seahorse Mito Stress Test oxygen consumption rate; type: cell-based, human; settings: Torin1 200 nM×7 days; normalized to baseline
Procedure: FIG. 12A provides a profile of average oxygen consumption rate normalized to baseline versus time as evaluated by the Seahorse Mito Stress Test. Open circles=control (n=70 wells), closed squares=Torin1 (69 wells, 200 nM×7 days; BJRiPS-CMs replated into Seahorse plate for 24-48 hours prior to assay), data from two independent experiments combined. […] FIG. 12F provides qPCR of selected genes associated with fatty acid metabolism (PPARGC1a (PGC1α), CD36, SLC27A1 (FATP1), SLC27A6 (FATP6), and LPIN1) or glucose metabolism (GLUT1, GLUT4, PFK, and PYGM) of BJRiPS-CMs after treatment with Torin1 (10 nM, 50 nM, or 200 nM) or vehicle control (0.02% DMSO) for 7 days starting ˜2 days after onset of beating. *p<0.05, **p<0.01, ***p<0.001, ****p<0.0001 by two-way ANOVA with Tukey's multiple comparison's test, n=3 per group. DMSO, dimethylsulfoxide; FCCP, 2-[2-[4-(trifluoromethoxy)phenyl]hydrazinylidene]-propanedinitrile.

[6] = test system: BJRiPS-CMs; assay: Mitochondrial polarization (MitoProbe JC-1); type: cell-based, human; settings: Torin1 200 nM for 7 days
[7] = test system: UCSD-CMs; assay: FluoVolt action potential profile; type: cell-based, human
Procedure: FIG. 13A provides qPCR of selected ion channels (KCNJ2, CACNA1c, RY2, ATP2a2, SCN5a, HCN4) of iPSC-derived cardiomyocytes after treatment with Torin1 (10 nM or 200 nM) or vehicle control (0.02% DMSO) for 7 days starting ˜2 days after onset of beating. n=3 per group, *p<0.05, ****p<0.001 by two-way ANOVA with Tukey's multiple comparisons test, BJRiPS line. FIG. 13B provides flow cytometry analysis of mean fluorescence intensity of Kir2.1 (encoded by KCNJ2) after Torin1 treatment for 7 days starting ˜2 days after onset of beating. n=3 per group, *p<0.01 by unpaired t-test, BJRiPS line. […] FIG. 13D provides representative images showing cell segmentation performed automatically by the CyteSeer software. Blue=Hoechst stain, Green=FluoVolt. […] CTD25 (25% duration of the calcium transient, or duration at 25% decline from maximum amplitude), CTD75 (75% duration of the calcium transient, or duration at 75% decline from maximum amplitude), T75-25 (time for voltage to decay from 75% to 25% of maximum). […] For Fluovolt data, control n=531 cells, Torin1 n=315 cells, analysis by unpaired t-test.

[8] = test system: Gibco iPS-CM; assay: Western blot of p53 after Torin1 treatment; type: cell-based, human; settings: Torin1 10, 50 or 200 nM for 7 days
Procedure: (§2) FIG. 14A provides representative western blot of p53, phospho-53, p21 (CDKN1a), GATA4, NKX2.5, and β-tubulin from Gibco iPS-CM lysates treated with 0 (DMSO), 10, 50, or 200 nM Torin1 for 7 days starting ˜2 days after onset of beating. Cells harvested on final day of treatment. FIG. 14B provides cell cycle analysis showing percentage of TNNT2+ BJRiPS-CMs in G0, G1 or S/G2/M phases after treatment with vehicle (DMSO, dimethylsulfoxide), pifithrin-α (10 μM) for 1 week, Torin1 (200 nM) for 7 days or simultaneous treatment with pifithrin-α (10 μM) and Torin1 (200 nM) for 7 days starting ˜2 days after onset of beating. n=3 per group, *p<0.05, **p<0.01, ***p<0.001, ****p<0.0001 by two-way ANOVA with Tukey's multiple comparisons test. FIG. 14C provides representative western blot of p53, TNNI3, p21, and β-tubulin from BJRiPS-derived cardiomyocyte lysates treated with control (DMSO), Torin1 (200 nM), pifithrin-α (10 PM) or Torin1 (200 nM)+pifithrin-α (10 μM) for 7 days beginning ˜2 days after onset of beating. Cells harvested on final day of treatment.

[9] = test system: PSC-CMs; settings: inhibition of mTOR signaling during late differentiation; previously suggested; cited from earlier work
[10] = test system: iPSC-CMs; assay: Flow cytometry of marker expression and live cells in iPSC-CMs treated in 3D culture; type: cell-based, human; settings: for percentage of TNNT2+ iPSC-CMs expressing Kir2.1: FIG. 2E / FIG. 3A; for mean fluorescence intensity (MFI) of Kir2.1: FIG. 2F / FIG. 3B; for % of p53+ TNNT2+ iPSC-CMs: FIG. 2G / FIG. 3C; for mean fluorescence intensity of p53: FIG. 3D; for expression of Kir2.1 / expression of p53: treatment of iPSC-CMs in 3D culture
Procedure: (§3) The UCSD142i-86-1 cell line was used to generate preliminary data. UCSD142i-86-1 cells were differentiated into cardiomyocytes according to previously published protocols (9) adapted to three-dimensional culture in the laboratory. Two days after onset of beating (around day 9 of differentiation), cardiomyocytes were treated with vehicle (DMSO) or different concentrations of quercetin for different time periods. Cells were harvested for qPCR, western, or flow cytometry at different time points.

[11] = test system: BJRiPS-CMs; assay: Western blot and densitometry (MDM2, p53, TNNI3) and cell cycle analysis of BJRiPS-derived cardiomyocytes; type: cell-based, human
Procedure: FIG. 6A provides a schematic showing proposed mechanism of cardiomyocyte maturation. T3, triiodothyronine. […] FIG. 6C provides representative Western blot of MDM2, p53, TNNI3, and β-tubulin from BJRiPS-derived cardiomyocyte lysates treated with control (DMSO), nutlin-3a Å˜24 hours (10 μmol/L), Torin1 Å˜7 days (200 nmol/L), or Torin1 Å˜7 days (200 nmol/L)+nutlin-3a (10 μmol/L) for 24 hours beginning ≈2 days after onset of beating (nutlin-3a was only administered during the first 24 hours of Torin1 treatment). Cells harvested on final day of treatment, BJRiPS-CMs. […] DMSO indicates dimethylsulfoxide; mTOR, mechanistic target of rapamycin; and TNNT2+ BJRiPS-CMs, troponin T2, cardiac type-positive BJ fibroblast-derived RNA-induced pluripotent stem cell-derived cardiomyocytes.
as §2

[12] = test system: cardiomyocytes; assay: Flow cytometry in 2D culture (TNNT2, MitoTracker Red CMXRos, superoxide signal); type: cell-based, human; settings: FACS, FIG. 8
Excerpt: FACS N=3/group, MitoTracker Red CMXRos flow cytometry, 1-way ANOVA with Tukey's multiple comparisons test.
Reactive oxygen species may regulate cardiomyocyte maturation. FACS, n=3/group.

[13] = test system: iPSC-CMs; assay: qPCR of PPARGC1a mRNA in iPSC-CMs treated in 3D culture; type: cell-based, human; settings: 200 μM for 3 days, FIG. 5
Procedure: as §3

[14] = test system: senescent tumor cells; settings: literature reference; cited from earlier work

CCC(=O)N1CCN(c2ccc(-n3c(=O)ccc4cnc5ccc(-c6cnc7ccccc7c6)cc5c43)cc2C(F)(F)F)CC1 [Torin1]
cellular quiescence ([1]; Torin1 for 7 days starting about 2 days after onset of beating): increases
percentage of TNNT2+ CMs out of live cell population ([1]; flow cytometry, Gibco iPS-CMs, one-way ANOVA, FIG. 10D): n.s.
expression selected ion channels ([2]; Torin1 10 nM or 200 nM for 7 days): increases
expression of sarcomere genes (MYH6, MYH7, TNNT2, TNNI3) ([2]; Torin1 10, 50 or 200 nM for 7 days): increases
contractility [3]: enhances
sarcomere length [4]: n.s
oxygen consumption rate [5]: increases
mitochondrial polarization [6]: increases
peak rise time of the action potential profile ([7]; FluoVolt, FIG. 13F): increases
downstroke velocity of the action potential profile ([7]; FluoVolt, FIG. 13G): increases
CTD25 time ([7]; FluoVolt, versus control, unpaired t-test, FIG. 13H): n.s.
plateau phase of the action potential profile ([7]; representative profile versus control, FIG. 13E): more prolonged
p53 expression [8]: increases
cellular quiescence [9]: induces
maturation of cardiomyocytes [9]: enhances

COc1ccc(C2=N[C@@H](c3ccc(Cl)cc3)[C@@H](c3ccc(Cl)cc3)N2C(=O)N2CCNC(=O)C2)c(OC(C)C)c1 [nutlin-3a]
percentage of TNNT2+ iPSC-CMs ([10]; 3D culture, flow cytometry, FIG. 2A): increases
mean fluorescence intensity (MFI) of TNNT2 ([10]; 3D culture, flow cytometry, FIG. 2B): increases
% of TNNI3+ ([10]; 3D culture, flow cytometry, FIG. 2C): increases
mean fluorescence intensity of TNNI3 ([10]; 3D culture, flow cytometry, FIG. 2D): increases
percentage of TNNT2+ iPSC-CMs expressing Kir2.1 ([10]; 3D culture, flow cytometry): increases
mean fluorescence intensity (MFI) of Kir2.1 ([10]; 3D culture, flow cytometry): increases
% of p53+ TNNT2+ iPSC-CMs ([10]; 3D culture, flow cytometry): increases
mean fluorescence intensity of p53 ([10]; 3D culture, flow cytometry): increases
expression of Kir2.1 [10]: increases
expression of p53 [10]: increases
TNNI3 expression, effect together with Torin1 ([11]; nutlin-3a 10 μmol/L during first 24 hours of Torin1 200 nmol/L for 7 days): synergistic effect
p53 (Western analysis) ([11]; nutlin-3a 10 μmol/L for 24 hours): upregulation
TNNI3 expression ([11]; nutlin-3a 10 μmol/L for 24 hours, about 2 days after onset of beating, Western densitometry): enhances
mean fluorescence intensity of superoxide signal [12]: increases

Cc1ccc(C(=O)Cn2c3c(sc2=N)CCCC3)cc1 [pifithrin-α]
effects of Torin1 (cell cycle, TNNI3) ([11]; pifithrin-α 10 μM with Torin1 200 nM for 7 days): inhibited

O=c1c(O)c(-c2ccc(O)c(O)c2)oc2cc(O)cc(O)c12 [quercetin]
percentage of live cells ([10]; 200 μM, 2 or 5 day treatment, 3D culture, flow cytometry, FIG. 4A): decreases
percentage of TNNT2+ iPSC-CMs expressing Kir2.1 ([10]; 3D culture, flow cytometry): increases
mean fluorescence intensity (MFI) of Kir2.1 ([10]; 3D culture, flow cytometry): increases
% of p53+ TNNT2+ iPSC-CMs ([10]; 3D culture, flow cytometry): increases
mean fluorescence intensity of p53 ([10]; 3D culture, flow cytometry): increases
iPSC-CM maturation ([10]; 3D suspension culture, preliminary data): can enhance
percentage of TNNT2+ cells out of live cells (cardiomyocytes) ([10]; 2 day treatment at 20 or 200 μM, 3D culture, flow cytometry, FIG. 4B): increases
expression of Kir2.1 [10]: increases
expression of p53 [10]: increases
mRNA expression of PPARGC1a [13]: increases; also recorded: significantly increased
apoptosis in senescent tumor cells [14]: can induce apoptosis
